Assay results reported in ChEMBL document CHEMBL3286226, “Discovery of thienopyrimidine-based FLT3 inhibitors from the structural modification of known IKKβ inhibitors” (Bioorg Med Chem Lett, 2014).
Blank lines part the entries; values can stand above or below the compound they belong to.

Columns and labels:
[1] = biological target: Tyrosine-protein kinase Lyn (Homo sapiens) (UniProt P07948); experiment: Inhibition of human Lyn assessed as residual activity at 10 uM relative to control
[2] = biological target: Tyrosine-protein kinase BTK (Homo sapiens) (UniProt Q06187); experiment: Inhibition of human BTK assessed as residual activity at 10 uM relative to control
[3] = biological target: Receptor-type tyrosine-protein kinase FLT3 (Homo sapiens) (UniProt P36888); experiment: Inhibition of human Flt3 assessed as residual activity at 10 uM relative to control
[4] = biological target: Inhibitor of nuclear factor kappa-B kinase subunit alpha (Homo sapiens) (UniProt O15111); experiment: Inhibition of human IKKalpha assessed as residual activity at 10 uM relative to control
[5] = biological target: Inhibitor of nuclear factor kappa-B kinase subunit beta (Homo sapiens) (UniProt O14920); experiment: Inhibition of human IKKbeta assessed as residual activity at 1 uM relative to control
[6] = biological target: Tyrosine-protein kinase JAK1 (Homo sapiens) (UniProt P23458); experiment: Inhibition of human JAK1 assessed as residual activity at 10 uM relative to control
[7] = biological target: Mitogen-activated protein kinase 8 (Homo sapiens) (UniProt P45983); experiment: Inhibition of human JNK1alpha1 assessed as residual activity at 10 uM relative to control
[8] = biological target: Mitogen-activated protein kinase 9 (Homo sapiens) (UniProt P45984); experiment: Inhibition of human JNK2alpha2 assessed as residual activity at 10 uM relative to control
[9] = biological target: Tyrosine-protein kinase JAK3 (Homo sapiens) (UniProt P52333); experiment: Inhibition of human JAK3 assessed as residual activity at 10 uM relative to control
[10] = biological target: Tyrosine-protein kinase Lck (Homo sapiens) (UniProt P06239); experiment: Inhibition of human Lck assessed as residual activity at 10 uM relative to control
[11] = biological target: MAP kinase-activated protein kinase 2 (Homo sapiens) (UniProt P49137); experiment: Inhibition of human MAPKAP-K2 assessed as residual activity at 10 uM relative to control
[12] = biological target: Dual specificity mitogen-activated protein kinase kinase 4 (Mus musculus) (UniProt P47809); experiment: Inhibition of mouse MKK4 assessed as residual activity at 10 uM relative to control
[13] = biological target: Dual specificity mitogen-activated protein kinase kinase 6 (Homo sapiens) (UniProt P52564); experiment: Inhibition of human MKK6 assessed as residual activity at 10 uM relative to control
[14] = biological target: Dual specificity mitogen-activated protein kinase kinase 7 (Homo sapiens) (UniProt O14733); experiment: Inhibition of human MKK7beta assessed as residual activity at 10 uM relative to control
[15] = biological target: Ribosomal protein S6 kinase alpha-5 (Homo sapiens) (UniProt O75582); experiment: Inhibition of human MSK1 assessed as residual activity at 10 uM relative to control
[16] = organism: Homo sapiens; experiment: Inhibition of human PKA assessed as residual activity at 10 uM relative to control
[17] = biological target: Rho-associated protein kinase 2 (Homo sapiens) (UniProt O75116); experiment: Inhibition of human ROCK-2 assessed as residual activity at 10 uM relative to control
[18] = biological target: Mitogen-activated protein kinase 14 (Homo sapiens) (UniProt Q16539); experiment: Inhibition of human SAPK2alpha assessed as residual activity at 10 uM relative to control
[19] = biological target: Mitogen-activated protein kinase 11 (Homo sapiens) (UniProt Q15759); experiment: Inhibition of human SAPK2beta assessed as residual activity at 10 uM relative to control
[20] = biological target: Mitogen-activated protein kinase 12 (Homo sapiens) (UniProt P53778); experiment: Inhibition of human SAPK3 assessed as residual activity at 10 uM relative to control
[21] = biological target: Mitogen-activated protein kinase 13 (Homo sapiens) (UniProt O15264); experiment: Inhibition of human SAPK4 assessed as residual activity at 10 uM relative to control
[22] = biological target: Non-receptor tyrosine-protein kinase TYK2 (Homo sapiens) (UniProt P29597); experiment: Inhibition of human TYK2 assessed as residual activity at 10 uM relative to control
[23] = biological target: T1, Receptor-type tyrosine-protein kinase FLT3 (Homo sapiens, UniProt P36888)
T1 sequence (P36888 whole entry): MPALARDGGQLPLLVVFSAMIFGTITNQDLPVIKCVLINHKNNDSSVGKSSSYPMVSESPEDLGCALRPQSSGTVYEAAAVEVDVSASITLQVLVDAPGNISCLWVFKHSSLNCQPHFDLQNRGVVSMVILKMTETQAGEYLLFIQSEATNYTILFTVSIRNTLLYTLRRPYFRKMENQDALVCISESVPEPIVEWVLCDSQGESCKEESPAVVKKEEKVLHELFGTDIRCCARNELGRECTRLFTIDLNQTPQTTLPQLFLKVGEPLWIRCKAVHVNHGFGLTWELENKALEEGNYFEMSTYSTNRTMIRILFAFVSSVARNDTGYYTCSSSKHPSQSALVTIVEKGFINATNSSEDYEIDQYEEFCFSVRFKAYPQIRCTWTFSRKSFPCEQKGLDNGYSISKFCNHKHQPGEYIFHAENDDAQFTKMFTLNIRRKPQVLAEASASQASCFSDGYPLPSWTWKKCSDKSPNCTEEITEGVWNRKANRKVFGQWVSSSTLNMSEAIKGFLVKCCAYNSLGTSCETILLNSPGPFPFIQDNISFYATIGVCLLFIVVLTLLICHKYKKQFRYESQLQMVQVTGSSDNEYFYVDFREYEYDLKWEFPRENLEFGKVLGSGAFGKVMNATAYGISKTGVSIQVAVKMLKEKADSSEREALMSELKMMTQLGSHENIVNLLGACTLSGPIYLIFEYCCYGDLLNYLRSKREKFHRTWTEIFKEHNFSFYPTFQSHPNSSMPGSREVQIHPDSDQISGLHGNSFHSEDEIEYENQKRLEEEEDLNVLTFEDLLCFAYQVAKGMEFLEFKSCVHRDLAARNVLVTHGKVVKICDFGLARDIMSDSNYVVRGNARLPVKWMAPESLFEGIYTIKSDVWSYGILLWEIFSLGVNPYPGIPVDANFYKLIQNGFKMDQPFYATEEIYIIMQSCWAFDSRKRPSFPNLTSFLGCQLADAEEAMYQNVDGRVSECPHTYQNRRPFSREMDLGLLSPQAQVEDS
Description: Inhibition of FLT3 kinase (unknown origin)

[24] = tested on: RAW264.7; experiment: cells; details: Mus musculus
Description: (§1) Antiinflammatory activity against mouse RAW264.7 cells assessed as reduction of LPS-induced TNF-alpha production

[25] = tested on: RAW264.7; experiment: cells; details: Mus musculus; remark: listed apart in the source
Description: Antiinflammatory activity against mouse RAW264.7 cells assessed as reduction of LPS-induced NO production

[26] = tested on: RAW264.7
Description: as §1

[27] = biological target: T2, Inhibitor of nuclear factor kappa-B kinase subunit beta (Homo sapiens, UniProt O14920)
T2 sequence (O14920 whole entry): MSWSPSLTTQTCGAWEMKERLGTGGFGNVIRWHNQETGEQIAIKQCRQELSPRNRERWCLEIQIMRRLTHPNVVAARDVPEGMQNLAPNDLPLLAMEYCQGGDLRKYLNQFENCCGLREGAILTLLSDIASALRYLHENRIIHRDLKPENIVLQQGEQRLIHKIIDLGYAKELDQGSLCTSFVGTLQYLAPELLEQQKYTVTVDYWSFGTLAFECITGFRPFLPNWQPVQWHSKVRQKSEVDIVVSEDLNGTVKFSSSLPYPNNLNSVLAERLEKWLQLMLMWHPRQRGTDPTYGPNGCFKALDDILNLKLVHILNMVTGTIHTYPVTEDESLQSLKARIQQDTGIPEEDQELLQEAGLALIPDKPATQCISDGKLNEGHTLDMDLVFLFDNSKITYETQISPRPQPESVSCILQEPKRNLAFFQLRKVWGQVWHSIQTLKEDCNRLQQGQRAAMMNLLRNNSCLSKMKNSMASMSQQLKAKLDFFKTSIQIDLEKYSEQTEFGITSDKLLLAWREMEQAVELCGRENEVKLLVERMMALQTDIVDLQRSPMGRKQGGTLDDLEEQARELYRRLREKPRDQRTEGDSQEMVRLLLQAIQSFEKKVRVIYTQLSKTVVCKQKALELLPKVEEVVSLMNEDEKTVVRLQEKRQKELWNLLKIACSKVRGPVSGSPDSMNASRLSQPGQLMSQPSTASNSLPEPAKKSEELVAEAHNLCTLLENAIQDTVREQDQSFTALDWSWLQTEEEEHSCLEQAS
Description: (§2) Inhibition of IKKbeta kinase (unknown origin) by Radioisotope system

[28] = biological target: T2, Inhibitor of nuclear factor kappa-B kinase subunit beta; remark: listed apart in the source
Description: Inhibition of IKKbeta kinase (unknown origin) by Lance ULight system

[29] = biological target: T2, Inhibitor of nuclear factor kappa-B kinase subunit beta; remark: listed apart in the source
Description: as §2

Sequence of Mitogen-activated protein kinase 13 (Homo sapiens) (O15264 whole entry): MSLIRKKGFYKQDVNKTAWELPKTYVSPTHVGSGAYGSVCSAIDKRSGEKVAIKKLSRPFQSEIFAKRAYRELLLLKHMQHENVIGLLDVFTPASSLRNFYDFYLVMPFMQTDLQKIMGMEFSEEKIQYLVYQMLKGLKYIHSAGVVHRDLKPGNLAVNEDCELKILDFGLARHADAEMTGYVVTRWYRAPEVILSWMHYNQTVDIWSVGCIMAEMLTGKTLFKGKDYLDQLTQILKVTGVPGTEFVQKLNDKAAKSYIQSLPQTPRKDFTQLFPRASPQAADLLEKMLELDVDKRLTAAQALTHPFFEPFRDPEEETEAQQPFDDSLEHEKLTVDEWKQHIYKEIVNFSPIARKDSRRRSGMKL
Sequence of Mitogen-activated protein kinase 8 (Homo sapiens) (P45983 whole entry): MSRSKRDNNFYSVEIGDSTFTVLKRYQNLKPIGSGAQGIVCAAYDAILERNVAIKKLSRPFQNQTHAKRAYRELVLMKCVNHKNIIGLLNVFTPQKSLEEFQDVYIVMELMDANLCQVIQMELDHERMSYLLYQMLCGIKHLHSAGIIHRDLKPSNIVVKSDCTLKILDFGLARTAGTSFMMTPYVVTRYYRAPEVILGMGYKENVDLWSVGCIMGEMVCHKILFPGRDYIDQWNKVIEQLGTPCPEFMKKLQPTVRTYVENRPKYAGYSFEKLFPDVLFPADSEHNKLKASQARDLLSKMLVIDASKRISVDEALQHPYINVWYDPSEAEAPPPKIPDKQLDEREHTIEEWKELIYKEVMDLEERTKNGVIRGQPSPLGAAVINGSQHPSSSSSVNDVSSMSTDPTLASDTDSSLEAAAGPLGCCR
Sequence of Tyrosine-protein kinase JAK3 (Homo sapiens) (P52333 whole entry): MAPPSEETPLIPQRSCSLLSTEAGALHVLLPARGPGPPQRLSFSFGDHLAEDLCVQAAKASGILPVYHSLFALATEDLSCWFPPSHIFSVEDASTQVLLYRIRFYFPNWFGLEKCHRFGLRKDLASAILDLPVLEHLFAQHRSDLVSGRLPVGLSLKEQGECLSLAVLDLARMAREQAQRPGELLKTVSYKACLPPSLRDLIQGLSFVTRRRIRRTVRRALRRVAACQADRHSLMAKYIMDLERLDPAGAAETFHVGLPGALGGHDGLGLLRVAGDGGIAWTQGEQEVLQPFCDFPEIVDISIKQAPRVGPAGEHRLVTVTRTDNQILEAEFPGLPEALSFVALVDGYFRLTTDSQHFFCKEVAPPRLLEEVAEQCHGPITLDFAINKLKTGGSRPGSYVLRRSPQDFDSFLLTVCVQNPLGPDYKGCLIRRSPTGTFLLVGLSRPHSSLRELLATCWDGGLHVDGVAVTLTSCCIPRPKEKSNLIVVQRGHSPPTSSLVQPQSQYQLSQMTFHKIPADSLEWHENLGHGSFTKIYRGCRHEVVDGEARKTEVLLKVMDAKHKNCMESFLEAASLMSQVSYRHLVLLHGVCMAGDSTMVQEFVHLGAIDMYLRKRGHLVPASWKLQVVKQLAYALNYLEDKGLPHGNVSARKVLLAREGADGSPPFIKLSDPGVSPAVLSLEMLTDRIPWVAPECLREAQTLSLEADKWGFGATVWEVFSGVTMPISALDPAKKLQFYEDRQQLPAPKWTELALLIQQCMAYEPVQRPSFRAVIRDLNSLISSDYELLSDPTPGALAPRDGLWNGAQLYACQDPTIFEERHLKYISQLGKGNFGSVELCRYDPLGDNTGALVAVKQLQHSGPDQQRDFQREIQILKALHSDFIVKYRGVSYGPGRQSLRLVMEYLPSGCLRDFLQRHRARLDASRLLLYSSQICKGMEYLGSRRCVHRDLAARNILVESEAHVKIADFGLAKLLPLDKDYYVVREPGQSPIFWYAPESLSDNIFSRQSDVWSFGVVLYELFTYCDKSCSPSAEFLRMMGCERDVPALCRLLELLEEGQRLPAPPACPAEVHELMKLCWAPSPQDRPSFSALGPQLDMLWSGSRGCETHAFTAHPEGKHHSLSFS
Sequence of Dual specificity mitogen-activated protein kinase kinase 4 (Mus musculus) (P47809 whole entry): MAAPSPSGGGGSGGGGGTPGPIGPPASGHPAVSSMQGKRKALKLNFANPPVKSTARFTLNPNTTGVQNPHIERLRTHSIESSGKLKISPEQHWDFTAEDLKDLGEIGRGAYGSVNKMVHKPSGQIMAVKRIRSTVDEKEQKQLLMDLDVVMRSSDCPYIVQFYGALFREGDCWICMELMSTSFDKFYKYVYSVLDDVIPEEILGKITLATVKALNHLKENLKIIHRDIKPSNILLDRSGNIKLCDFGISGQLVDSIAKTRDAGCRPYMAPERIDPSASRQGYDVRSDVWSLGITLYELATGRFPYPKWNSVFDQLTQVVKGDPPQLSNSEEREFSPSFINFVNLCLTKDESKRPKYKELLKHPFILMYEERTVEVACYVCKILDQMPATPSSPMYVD
Sequence of Non-receptor tyrosine-protein kinase TYK2 (Homo sapiens) (P29597 whole entry): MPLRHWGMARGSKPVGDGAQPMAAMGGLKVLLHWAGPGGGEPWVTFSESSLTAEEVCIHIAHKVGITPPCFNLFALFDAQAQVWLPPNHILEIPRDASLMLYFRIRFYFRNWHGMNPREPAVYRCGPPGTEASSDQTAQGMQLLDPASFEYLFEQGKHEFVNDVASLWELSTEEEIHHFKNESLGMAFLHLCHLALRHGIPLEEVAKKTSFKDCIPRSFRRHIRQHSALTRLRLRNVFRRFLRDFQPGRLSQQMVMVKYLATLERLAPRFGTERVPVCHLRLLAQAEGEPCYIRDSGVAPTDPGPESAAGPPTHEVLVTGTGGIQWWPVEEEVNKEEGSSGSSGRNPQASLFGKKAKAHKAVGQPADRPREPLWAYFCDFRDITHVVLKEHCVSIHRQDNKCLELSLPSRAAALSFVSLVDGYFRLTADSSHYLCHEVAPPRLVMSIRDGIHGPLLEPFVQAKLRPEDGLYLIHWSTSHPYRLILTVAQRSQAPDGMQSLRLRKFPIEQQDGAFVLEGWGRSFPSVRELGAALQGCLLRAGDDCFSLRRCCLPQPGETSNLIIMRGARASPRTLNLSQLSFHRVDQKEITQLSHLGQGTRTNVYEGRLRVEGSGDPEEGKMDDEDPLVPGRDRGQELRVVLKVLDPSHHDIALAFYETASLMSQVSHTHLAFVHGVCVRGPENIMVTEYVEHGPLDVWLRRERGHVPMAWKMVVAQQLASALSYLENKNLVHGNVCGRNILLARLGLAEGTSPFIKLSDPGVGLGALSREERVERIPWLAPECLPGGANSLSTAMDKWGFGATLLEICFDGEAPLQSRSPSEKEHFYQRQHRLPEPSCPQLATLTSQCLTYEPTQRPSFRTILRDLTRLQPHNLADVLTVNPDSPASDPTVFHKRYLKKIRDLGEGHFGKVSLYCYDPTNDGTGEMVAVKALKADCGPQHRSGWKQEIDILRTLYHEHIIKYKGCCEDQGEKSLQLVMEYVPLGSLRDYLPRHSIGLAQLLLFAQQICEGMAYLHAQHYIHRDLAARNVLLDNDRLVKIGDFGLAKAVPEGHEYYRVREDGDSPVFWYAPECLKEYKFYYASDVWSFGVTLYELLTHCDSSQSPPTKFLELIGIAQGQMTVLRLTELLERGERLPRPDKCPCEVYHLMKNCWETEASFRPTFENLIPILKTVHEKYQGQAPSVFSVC
Sequence of Ribosomal protein S6 kinase alpha-5 (Homo sapiens) (O75582 whole entry, looked up): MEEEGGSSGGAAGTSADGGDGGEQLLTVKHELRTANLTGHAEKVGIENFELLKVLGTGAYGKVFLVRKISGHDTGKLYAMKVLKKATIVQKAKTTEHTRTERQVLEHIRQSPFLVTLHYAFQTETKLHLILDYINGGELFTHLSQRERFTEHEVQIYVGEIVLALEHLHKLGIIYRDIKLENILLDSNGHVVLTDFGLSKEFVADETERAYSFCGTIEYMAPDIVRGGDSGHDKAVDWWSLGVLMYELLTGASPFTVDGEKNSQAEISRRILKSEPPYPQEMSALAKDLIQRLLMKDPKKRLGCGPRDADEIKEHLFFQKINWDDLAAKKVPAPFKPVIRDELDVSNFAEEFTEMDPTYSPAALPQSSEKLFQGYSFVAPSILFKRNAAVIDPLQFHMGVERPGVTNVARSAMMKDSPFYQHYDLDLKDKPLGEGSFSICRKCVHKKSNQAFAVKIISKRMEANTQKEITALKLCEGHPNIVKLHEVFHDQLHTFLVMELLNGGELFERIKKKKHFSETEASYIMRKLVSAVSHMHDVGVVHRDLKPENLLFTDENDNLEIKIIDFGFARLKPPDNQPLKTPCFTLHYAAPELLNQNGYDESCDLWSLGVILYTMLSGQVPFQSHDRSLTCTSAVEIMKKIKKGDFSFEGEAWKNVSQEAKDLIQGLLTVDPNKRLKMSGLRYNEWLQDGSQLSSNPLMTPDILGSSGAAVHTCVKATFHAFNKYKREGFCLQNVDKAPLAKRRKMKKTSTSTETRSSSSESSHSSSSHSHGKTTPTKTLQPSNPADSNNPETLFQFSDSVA
Sequence of MAP kinase-activated protein kinase 2 (Homo sapiens) (P49137 whole entry, looked up): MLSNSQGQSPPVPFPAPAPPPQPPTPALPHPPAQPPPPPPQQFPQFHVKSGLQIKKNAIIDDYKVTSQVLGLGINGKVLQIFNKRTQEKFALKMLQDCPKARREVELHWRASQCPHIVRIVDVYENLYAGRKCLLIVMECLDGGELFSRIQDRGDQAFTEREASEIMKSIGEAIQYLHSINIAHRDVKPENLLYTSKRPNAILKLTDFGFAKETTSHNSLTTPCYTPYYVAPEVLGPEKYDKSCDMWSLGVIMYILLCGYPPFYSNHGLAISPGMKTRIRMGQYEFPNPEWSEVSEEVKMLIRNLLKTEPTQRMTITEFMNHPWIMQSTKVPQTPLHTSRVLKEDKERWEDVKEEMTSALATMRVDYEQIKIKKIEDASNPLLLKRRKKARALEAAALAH
Sequence of Dual specificity mitogen-activated protein kinase kinase 6 (Homo sapiens) (P52564 whole entry): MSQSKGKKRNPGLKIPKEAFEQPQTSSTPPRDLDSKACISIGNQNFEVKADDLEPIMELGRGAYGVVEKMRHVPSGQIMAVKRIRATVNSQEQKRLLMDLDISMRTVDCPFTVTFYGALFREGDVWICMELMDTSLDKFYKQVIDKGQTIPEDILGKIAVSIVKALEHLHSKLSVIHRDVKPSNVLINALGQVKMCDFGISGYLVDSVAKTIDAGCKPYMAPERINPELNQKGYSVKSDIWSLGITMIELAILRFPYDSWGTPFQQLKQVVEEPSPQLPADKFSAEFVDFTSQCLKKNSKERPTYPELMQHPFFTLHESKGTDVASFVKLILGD

Structure (SMILES): O=C1c2ccncc2C(=O)N1Nc1ncnc2scc(-c3cccs3)c12
IC50 [26]: Not Active
IC50 [25]: > 10 µM

Structure (SMILES): CC1=CC(=O)N(Nc2nc(-c3cccs3)nc3sccc23)C1=O
IC50 [28]: > 50 µM
IC50 [27]: Not Active
IC50 [24]: 8.95 µM
IC50 [25]: 6.98 µM

Structure (SMILES): O=C1c2ccccc2C(=O)N1Nc1ncnc2scc(-c3cccs3)c12
IC50 [26]: Not Active
IC50 [25]: > 10 µM

Structure (SMILES): CC1=CC(=O)N(Nc2nc(C3CC3)nc3scc(-c4cccs4)c23)C1=O
IC50 [24]: 4.35 µM
IC50 [25]: 3.12 µM

Structure (SMILES): CCOC(=O)Cc1csc2nc(-c3cccs3)nc(NN3C(=O)C=C(C)C3=O)c12
IC50 [23]: 0.673 µM
IC50 [28]: > 50 µM
IC50 [27]: Not Active
IC50 [24]: 5.23 µM
IC50 [25]: 5.07 µM

Structure (SMILES): CC1=CC(=O)N(Nc2nc(-c3ccncc3)nc3scc(-c4cccs4)c23)C1=O
IC50 [24]: > 10 µM
IC50 [25]: 2.11 µM

Results, then the compound that gave them:

Activity [1]: 81%
Activity [2]: 100%
Activity [3]: 4%
Activity [4]: 98%
Activity [5]: 84%
Activity [6]: 111%
Activity [7]: 93%
Activity [8]: 117%
Activity [9]: 112%
Activity [10]: 74%
Activity [11]: 94%
Activity [12]: 112%
Activity [13]: 96%
Activity [14]: 108%
Activity [15]: 102%
Activity [16]: 126%
Activity [17]: 96%
Activity [18]: 96%
Activity [19]: 103%
Activity [20]: 99%
Activity [21]: 100%
Activity [22]: 87%
IC50 [23]: 0.133 µM
IC50 [24]: 2.92 µM
IC50 [25]: 2.15 µM
Structure (SMILES): CC1=CC(=O)N(Nc2nc(-c3cccs3)nc3scc(-c4cccc(OCCN5CCCCC5)c4)c23)C1=O

IC50 [24]: 1.13 µM
IC50 [25]: 3.13 µM
Structure (SMILES): CC1=CC(=O)N(Nc2nc(-c3ccccc3)nc3scc(-c4cccs4)c23)C1=O

IC50 [23]: 0.488 µM
IC50 [27]: Not Active
IC50 [24]: 2.67 µM
IC50 [25]: 1.23 µM
Structure (SMILES): CC1=CC(=O)N(Nc2nc(-c3cccs3)nc3scc(-c4cccc(O)c4)c23)C1=O

IC50 [23]: 0.54 µM
IC50 [29]: > 50 µM
IC50 [24]: 2.38 µM
IC50 [25]: 3.26 µM
Structure (SMILES): CC1=CC(=O)N(Nc2nc(-c3cccs3)nc3scc(-c4cccc(OCCN5CCOCC5)c4)c23)C1=O

IC50 [28]: > 50 µM
IC50 [29]: > 50 µM
IC50 [24]: 9.88 µM
IC50 [25]: 7.54 µM
Structure (SMILES): CC1=CC(=O)N(Nc2nc(-c3cccs3)nc3scc(-c4cccc(OCCN(C)C)c4)c23)C1=O
